Measured values published in PubChem BioAssay AID2252 (Southern Research Specialized Biocontainment Screening …, 2010).

Test system: THP-1 viability, CellTiter-Glo luminescence, 72 h
Assay: PubChem AID 2252

Structure (SMILES) | EC50
COc1ccc(CNC(=O)CCC(=O)N2C[C@H]3C[C@H](C2)c2cccc(=O)n2C3)cc1 | < 0.1 µM
CCN(CC)CCSc1nnc2c3ccccc3n(Cc3ccccc3)c2n1 | 26.3 µM
CCCCCCCCCCCCCCCC[N+](C)(C)CC | 0.48 µM
c1ccc2cc(CSCc3nc4ccccc4[nH]3)ccc2c1 | 48.5 µM
NC1=NC[C@H](Cc2ccc(O)cc2)N1CCc1cccc2ccccc12 | 32.7 µM
NC(N)=N/N=C/c1ccc(OCc2ccc(Cl)cc2Cl)cc1 | 5.86 µM
O=[N+]([O-])/C=C/c1cc2ccccc2[nH]1 | 44.9 µM
CCCCCCCCCCCCCCCC[N+](C)(C)C | 1.43 µM
COc1ccc(Nc2cc(C)nc(NCc3ccccc3)n2)cc1 | 4.79 µM
COc1cccc(Nc2cc(C)nc3ccccc23)c1 | 30.5 µM
CN(Cc1ccccc1)CC(O)COc1ccc(CNCc2ccc(Cl)s2)cc1 (stereo not drawn) | 22.2 µM
Clc1ccc2c(c1)C(N1CCNCC1)Cc1ccccc1S2 (stereo not drawn) | 7.4 µM
Cc1ccc(S(=O)(=O)NC(C)(C)CSc2nnc(N)s2)cc1 | < 0.1 µM
CC(=O)NC(c1cccs1)c1cc([N+](=O)[O-])c2cccnc2c1O (stereo not drawn) | 10.5 µM
NC1=C(Br)C(=O)c2ccccc2C1=O | 9 µM
Clc1cccc(CN2CCc3c([nH]c4ccccc34)C2)c1Cl | 8.82 µM
CC(NCc1ccc(-c2ccccc2)cc1)C(O)c1ccccc1 (stereo not drawn) | 5.49 µM
CCCCCCCCCCOC(=O)Cn1c(COc2ccccc2OC)[n+](C)c2ccccc21 | 1.64 µM
CCCOc1ccc(C(=O)NNC(=S)NC(=O)CC)cc1 | 2.81 µM
CCOC(=O)CNC(=O)Cn1c(C)cc2ccccc2c1=O | 40.9 µM
CCc1nnc(NS(=O)(=O)c2ccc(N=Cc3c(C)[nH]n(-c4ccc(C)cc4)c3=O)cc2)s1 | 29.3 µM
Cc1ccc(NC(=O)COc2ccccc2CNC(C)(C)CC(C)(C)C)cc1 | 9.23 µM
Fc1ccc(Nc2ccnc(Nc3ccc(F)cc3)n2)cc1 | 11.7 µM
Clc1ccc(OCCCNCc2ccccc2)c(Br)c1 | 13.7 µM

Structure (SMILES) | EC50
O=c1c2ccccc2nc(N/N=C/c2c(O)ccc3ccccc23)n1O | 0.99 µM
COc1ccc(CNc2ncnc3c2[nH]c2ccccc23)cc1 | 39.3 µM
CC(=O)NC(c1cccc([N+](=O)[O-])c1)c1ccc2cccnc2c1O (stereo not drawn) | 0.47 µM
Cc1ccc(-c2csc(NC(=O)C[n+]3cc(-c4ccccc4)n4c3CCC4)n2)cc1 | 8.47 µM
CN1CCN(C2=Cc3cc(Cl)ccc3Sc3cc(F)ccc32)CC1 | 13.4 µM
CCCCCCCCCCC[N+](C)(C)CC/C=C1/c2ccccc2Sc2ccc(Cl)cc21 | 2.58 µM
C#CCOCCOCCOCCNc1nc(N2CCN(C(=O)CCCCCCCCCCNC(=O)[C@H](CCCCN)n3cc(CCO)nn3)CC2)nc(N2CCN(C(=O)CCCCCCCCCCNC(=O)[C@H](CCCN=C(N)N)n3cc(C[C@@H](C)CC)nn3)CC2)n1 | 11.3 µM
CN(C)CCCN1c2ccccc2Sc2ccccc21 | 32.6 µM
O=C(N/N=C/c1cc(Br)cc(Br)c1O)c1ccncc1 | 4.01 µM
Nc1cc(Cl)c2nonc2c1[N+](=O)[O-] | 2.73 µM
OC(CNCCc1ccc(Cl)cc1)COc1cc(Cl)ccc1Cl (stereo not drawn) | 29.8 µM
Nc1nonc1-n1nnc(C(=O)N/N=C/c2cc(Br)ccc2O)c1CSC1=NCCS1 | 1.29 µM
COc1ccc(Nc2cc(C)c3c(O)cccc3n2)cc1 | 8.86 µM
O=[N+]([O-])c1cc(F)c2cccnc2c1O | 22.9 µM
CCOC(=O)c1c(N)sc(C(=O)Nc2ccc3c(c2)OCO3)c1C | 42.7 µM
COc1cccc(CNC23CC4CC(CC(C4)C2)C3)c1OCc1ccccc1 | 22.3 µM
Cc1cc(C2N=C(N)Nc3nc4ccccc4n32)c(C)n1-c1ccccc1Cl (stereo not drawn) | 11.4 µM
N#CC1=C2N=C(N)c3ccccc3N2C2=C(C(=O)CCC2)C1c1cccc(Cl)c1 (stereo not drawn) | 27.1 µM
O=c1[nH]c(-c2ccccn2)nc(C(F)(F)F)c1Br | 11.5 µM
OCCNCc1cc(Br)ccc1OCc1ccc(Cl)cc1 | 15.9 µM
C/C(Cn1nnc([N+](=O)[O-])n1)=N\NC(=O)c1ccccc1 | 40 µM
O=C(CCN1CCOCC1)N/N=C/c1cc(Br)cc(Br)c1O | 24.8 µM
Cc1ccc(C(=O)N/C(=C\c2ccc(-c3ccc(Br)cc3)o2)C(=O)NCCCN(C)C)cc1 | 4.18 µM
COc1ccc2[nH]cc(C(=O)CCl)c2c1 | 7.78 µM

Structure (SMILES) | EC50
CCN(CC)C(=S)SSC(=S)N(CC)CC | 21.9 µM
COc1cccc(Nc2nc(NCC3CCCO3)c3ccccc3n2)c1 (stereo not drawn) | 2.27 µM
CN1CC(C(=O)c2ccc(Cl)cc2)C(c2ccc(Cl)cc2Cl)C1 (stereo not drawn) | 27.5 µM
COc1ccc(C(=O)CSc2nnc(-c3cnccn3)n2Cc2ccco2)cc1 | < 0.1 µM
O=c1[nH]c(=S)ccn1C1OC(CO)C(O)C1O (stereo not drawn) | 16.3 µM
CC(C)CCC(CCNCc1ccccn1)c1ccc(Cl)cc1 (stereo not drawn) | 16.2 µM
Cc1ccccc1C(=O)NNC(=S)NC(=O)COc1ccccc1 | 48.1 µM
O=C(N/N=C/c1ccc([N+](=O)[O-])o1)C1CCCC1 | < 0.1 µM
C#CCOCCOCCOCCNc1nc(N2CCN(C(=O)CCCCCCCCCCNC(=O)[C@@H](CCSC)n3cc(CCO)nn3)CC2)nc(N2CCN(C(=O)CCCCCCCCCCNC(=O)[C@H]([C@@H](C)CC)n3cc(CCCCCN)nn3)CC2)n1 | 12.9 µM
Cc1nc2ccccc2c(N)c1C(=O)/C=C/c1ccccc1 | 3.11 µM
COCCCNC(=S)NNC(=O)c1ccccn1 | 38 µM
O=C(CN1C2=NCCN2c2ccccc21)c1ccco1 | < 0.1 µM
C/C(=N\NC(=O)c1ccccc1O)c1cccs1 | 22.7 µM
COc1ccc(/C=C/c2cc[n+](C(=O)Cc3ccccc3)cc2)cc1 | 3.92 µM
CCCCCOc1ccc(CSC(=N)N)cc1[N+](=O)[O-] | 14 µM
Clc1ccc(Nc2ccc(NCc3ccccc3)nn2)cc1 | 22.4 µM
CCOc1ccccc1-c1cc(-c2ccccc2)nc2c1c(=O)n(C)c(=O)n2C | < 0.1 µM
CNC[C@@H](Cc1ccccc1)NC[C@@H](CC1CCCCC1)NCCCc1ccccc1 | 3.56 µM
CCN1CCN(CCCNC(=O)c2ccc(/C=C3/Sc4ccccc4N(Cc4ccccc4F)C3=O)cc2)CC1 | 11.2 µM
COc1ccc(/C=N/Nc2cc(C)nc3ccccc23)cc1 | 7.03 µM
CC1CCN(CCCNC(=O)c2ccc3c(=O)n(Cc4ccc(Cl)cc4)c(=S)[nH]c3c2)CC1 | 16.8 µM
CCn1cc(C(=O)NCCc2ccccc2)c(=O)c2cc(F)c(N3CCN(C)CC3)cc21 | 35.4 µM
CCOc1cc(CNC(C)(C)CO)cc(Br)c1OCc1ccc(Cl)cc1Cl | 5.53 µM
CCCCNC(=S)Nc1ccc([N+](=O)[O-])cc1 | 28.8 µM

Structure (SMILES) | EC50
Cc1ccc(Nc2nc(N)c3ccccc3n2)cc1Cl | 13.7 µM
Cc1ccc(C(=O)NNC(=S)NC(=O)COc2ccccc2)cc1 | 15.1 µM
Cn1c(N/N=C/c2c[nH]c3ccccc23)nc2ccccc21 | 8.11 µM
CCCCCCCCCCCCCCCC[n+]1ccc(/C=N/O)cc1 | 0.3 µM
O=C1CN(/N=C/c2ccc([N+](=O)[O-])o2)C(=O)N1 | 47.3 µM
CCN1CCN(Cc2ccc(NC(=O)c3cc(NC(=O)c4cc(-c5ccc(OC)cc5)n[nH]4)cc(OC)c3)cc2C(F)(F)F)CC1 | 3.92 µM
Cn1c(=O)c2c(nc(Br)n2CCSc2nc3ccccc3o2)n(C)c1=O | < 0.1 µM
O=C(c1ccccc1)c1c2c(cc3sc4ccccc4[n+]13)-c1cccc3cccc-2c13 | 1.36 µM
N=c1c2c(n(Cc3cccc(Cl)c3)c3c1CCC3)CCCC2 | 13.5 µM
Cc1cc(Cl)c(OCCCNCc2ccccc2)c(Br)c1 | 21.4 µM
CN(C)CCNc1oc(COc2ccc(-c3ccccc3)cc2)nc1C#N | 13.1 µM
O=C(N/N=C/c1ccccc1O)c1ccncc1 | 15.2 µM
CCN1/C(=C/C=C/C=C/c2sc3ccccc3[n+]2CC)Sc2ccccc21 | 7.7 µM
CCc1ccc2c(c1)CCCN2C(=O)c1ccccc1C(=O)O | 38.3 µM
NC1=NC[C@H](Cc2ccc(O)cc2)N1CCCCC1CCCCC1 | 1.73 µM
COc1ccc(/C=N/NC(=O)c2cc3c(OC)ccc(OC)c3[nH]2)cc1O | 2.53 µM
O=C(/C=C/c1cc(Br)ccc1O)c1ccco1 | 8.79 µM
O=c1ccc2cc3c([nH]c4ccc(Br)cc43)oc-2c1O | 18.9 µM
CN1CCN(c2nc3cc(C(F)(F)F)ccc3n3cccc23)CC1 | 42.3 µM
Cn1c(-c2ccc3c(c2)OCO3)cnc1NCc1ccc(Cl)cc1 | 28.8 µM
OC1(c2ccc(Cl)cc2)CCN(Cc2c[nH]c3ccccc23)CC1 | 9.75 µM
Clc1ccc(CONc2ncnc3nonc23)c(Cl)c1 | 47.7 µM
Oc1c(CN2CCCCC2)cc(Br)c2cccnc12 | 2.65 µM
O=C1C=C(c2ccc(Cl)cc2)C(=O)N1Nc1ccccc1 | 5.96 µM

Structure (SMILES) | EC50
COc1ccc(N=CC2=C(Nc3ccc(OC)cc3)c3c(C)nn(-c4ccccn4)c3CC2)cc1 | 2.16 µM
Oc1ccc(C[C@@H]2CNCCN2CCCCC2CCCCC2)cc1 | 8.53 µM
O=C(CCN1CCOCC1)c1ccc(Br)cc1 | 43.2 µM
O=Cc1c(Cl)nc2ccccn2c1=O | 21.7 µM
Oc1ccccc1-c1cc(C(F)(F)C(F)F)[nH]n1 | 46.4 µM
O=C(O)c1csc(-c2ccc(Cl)cc2)n1 | < 0.1 µM
CC12CN3CC(C)(CN(C1)C3c1ccc(Br)cc1O)C2 (stereo not drawn) | < 0.1 µM
CC(C)(C)c1ccc(OCCCNC2CCCC2)cc1 | 19.9 µM
CCN(CC)CCNc1nc(-c2ccc(OC)cc2)c(-c2ccc(OC)cc2)s1 | 22.3 µM
O=C(CSc1ccccn1)Nc1nonc1[N+](=O)[O-] | 6.9 µM
CN(C)CCNC(=O)/C(=C/c1ccc(-c2ccc(Cl)cc2)o1)NC(=O)c1ccccc1 | 11.3 µM
CCCNC1=C(C)C(=O)C2=C(C1=O)C(COC(N)=O)[C@]1(OC)C3NC3CN21 (stereo partly drawn) | 8.84 µM
OCCN1CCN(CCCN2c3ccccc3Sc3ccc(Cl)cc32)CC1 | 12.5 µM
CCN1CCN(c2cc(C)c3cc(NC(=S)N4CCN(c5ccccc5F)CC4)ccc3n2)CC1 | 17.9 µM
O=C(c1cccs1)c1no[n+]([O-])c1C(=O)c1cccs1 | 1.89 µM
O=C1C=CC(=O)N1CCCCCCN1C(=O)C=CC1=O | 3.29 µM
CCc1nn(CCCN2CCN(c3cccc(Cl)c3)CC2)c(=O)n1CCOc1ccccc1 | 42.4 µM
Oc1ccccc1Nc1nc(NCc2ccco2)c2ccccc2n1 | 12.6 µM
CCOC(=O)c1c(-c2ccc(-c3ccccc3)cc2)csc1NC(=O)CNCCN(C)C | 7.38 µM
Cc1cc(OCCCCCN2CCCC2)ccc1Cl | 48.7 µM
O=C(C[n+]1cc(-c2ccccc2)n2c1CCC2)Nc1nc(-c2ccc(F)cc2)cs1 | 32.4 µM
OCCCCNCc1ccc(OCc2ccc(Cl)cc2Cl)cc1 | 9.8 µM
